Results as given in publication PMC8831520, “Small molecule SWELL1 complex induction improves glycemic control and nonalcoholic fatty liver disease in murine Type 2 diabetes” (Nature Communications, 2022).

Test system: T1, SWELL1 protein in 3T3-F442A adipocytes
T1 construct: host or cells: 3T3-F442A preadipocytes and differentiated adipocytes (wild type)
Assay: SWELL1 protein western blot in adipocytes
Format: cell-based, murine
Details: for SWELL1 protein level relative to vehicle-treated controls: 10 and 1 μM, 4 days, then 6 h serum starving
Experimental: In the case of 3T3-F442A adipocytes, the WT and KO cells were treated with either vehicle (DMSO), 1 or 10 µM SN-40X (after 7–11 days of differentiation) for 96 h and then stimulated with 0 and 10 nM insulin/serum-containing media with vehicle (DMSO) or SN-40X for 15 min for SWELL1 detection. […] To simulate glucolipotoxicity, 8 mM sodium palmitate was dissolved in 18.4% fatty-acid free BSA at 37 °C in DMEM medium with 25 mM glucose to obtain a conjugation ratio of 1:3 palmitate:BSA[80].
Adipocytes were washed twice in ice-cold phosphate buffer saline and lysed in RIPA buffer (150 mM NaCl, 20 mM HEPES, 1% NP-40, 5 mM EDTA, pH 7.4) with proteinase/phosphatase inhibitors (Roche). The cell lysate was further sonicated in 10 s cycle intervals 2–3 times and centrifuged at 18,407×g for 30 min at 4 °C and repeated one more time to remove the excess fat. The supernatant was collected and further estimated for protein concentration using a DC protein assay kit (Bio-Rad). Fat and liver tissues were homogenized and suspended in RIPA buffer with inhibitors and further processed in a similar fashion as described above. HUVECs were also prepared in a similar fashion except the lysates were spun only once to remove the cells debris to obtain the clear supernatant. For islets, either human or mouse islets were washed twice with phosphate buffer saline (PBS) and lysed using RIPA buffer containing protease and phosphatase inhibitors. The lysate was further clarified by freezing in liquid nitrogen for about 10 s for three cycles. The supernatant was collected from the whole lysate centrifuged at 16,260×g for 20 min at 4 °C. […] For soleus muscle, the tissue was homogenized in a Bullet Blender homogenizer (Speed-9, Time-3 mins) in 8 volumes of ice-cold muscle homogenization buffer (50 mM Tris, 25 mM NaCl, 0.2% Nonidet P-40, 5 mM EGTA, 2.5 mM EDTA, 20 mM NaF, 20 mM Na4P2O7·10H2O, 2 mM Na3VO4, pH 7.4) supplemented with protease/phosphatase inhibitor (Roche). The homogenized lysate was centrifuged two times at 18,500×g for 20 min at 4 °C and supernatant was collected for protein estimation. Protein samples were further prepared by boiling in 2X or 4X Laemmli buffer. Approximately 10–60 µg of total protein was loaded in 4–15% gradient gel (Bio-Rad) for separation and protein transfer was carried out onto the PVDF membranes (Bio-Rad). Membranes were blocked in 5% BSA (or 5% milk for SWELL1) in TBST buffer (0.2 M Tris, 1.37 M NaCl, 0.2% Tween-20, pH 7.4) for 1 h and incubated with appropriate primary antibodies (5% BSA or milk) overnight at 4 °C. […] The images were further analyzed for band intensities using ImageJ software. […]

| SMILES | SWELL1 protein level relative to vehicle-treated controls | SWELL1 protein expression (3T3-F442A adipocytes, 10 µM, 96 h) [fold control expression] |
| --- | --- | --- |
| CCCCC1(C2CCCC2)Cc2cc(OCC(=O)O)c(Cl)c(Cl)c2C1=O (stereo not drawn) [Inactive 1, 2-((2-butyl-6,7-dichloro-2-cyclopentyl-1-oxo-2,3-dihydro-1H-inden-5-yl)oxy)acetic acid] | did not significantly increase | – |
| CCCCC1(C2CCCC2)Cc2cc(OCCCC(=O)O)c(Cl)c(Cl)c2C1=O (stereo not drawn) [SN-401, 4-((2-butyl-6,7-dichloro-2-cyclopentyl-1-oxo-2,3-dihydro-1H-inden-5-yl)oxy)butanoic acid] | – | 1.5 |
| CCCCC1(C2CCCC2)Cc2cc(OCCCCCC(=O)O)c(Cl)c(Cl)c2C1=O (stereo not drawn) [SN-406, 6-((2-butyl-6,7-dichloro-2-cyclopentyl-1-oxo-2,3-dihydro-1H-inden-5-yl)oxy)hexanoic acid] | 1.5–2.1 fold | – |
